{
  "source": "paper PMC11249637",
  "about": "“Interaction of the Atypical Tetracyclines Chelocardin and Amidochelocardin with Renal Drug Transporters” (ACS Pharmacology & Translational Science, 2024)",
  "format_in_all_cases": "in vitro ADME",
  "key": {"hOAT3": {"target": "T1, hOAT3 (Homo sapiens, UniProt Q8TCC7)", "T1 construct": "expressed in transfected cells; host or cells: HEK293", "T1 sequence (Q8TCC7 1-542)": "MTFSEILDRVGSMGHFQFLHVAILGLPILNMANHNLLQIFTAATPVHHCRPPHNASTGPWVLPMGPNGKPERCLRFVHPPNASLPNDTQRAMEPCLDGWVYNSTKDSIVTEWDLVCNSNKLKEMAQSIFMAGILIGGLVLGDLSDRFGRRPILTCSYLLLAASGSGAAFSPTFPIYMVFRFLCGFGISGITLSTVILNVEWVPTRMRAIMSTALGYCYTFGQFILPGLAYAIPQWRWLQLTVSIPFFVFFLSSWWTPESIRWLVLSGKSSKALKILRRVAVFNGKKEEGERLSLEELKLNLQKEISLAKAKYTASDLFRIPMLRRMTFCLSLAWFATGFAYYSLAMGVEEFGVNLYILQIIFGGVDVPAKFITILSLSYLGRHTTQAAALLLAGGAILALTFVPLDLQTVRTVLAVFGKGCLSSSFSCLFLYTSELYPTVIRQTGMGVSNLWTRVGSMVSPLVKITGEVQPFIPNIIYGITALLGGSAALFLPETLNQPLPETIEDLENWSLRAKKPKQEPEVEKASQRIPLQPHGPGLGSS", "assay": "Two-point inhibition of hOAT3-mediated ES uptake in transfected HEK293 cells", "settings": "ES 1 μM, 1 min", "procedure": "(§1) Well-characterized mOct1-, mOct2-, mOat1-, mOat2-, mOat3-, mMate1-, hOAT1-, hOAT3-, hOAT4-, hMRP2-, mMdr1a- and mMdr1b-transfected HEK293 cells and the respective vector-transfected control HEK293 cells were used.[42],[51],[52] All HEK293 cells (transporter-transfected and vector-transfected) were cultured in DMEM (Sigma, high glucose, 10% FBS, 1% penicillin (10,000 Units/mL)/streptomycin (10 mg/mL)) at 37°C under 5% CO2 in humidified atmosphere. The cells were routinely checked for the absence of mycoplasma infection. For the preparation of HEK293 cell monolayers, 24-well plates were pretreated with a poly-D-lysine hydrobromide solution (0.1 mg/mL). […]\n(§2) For the uptake assay, the growth medium was aspirated, and each well was rinsed three times with 0.5 mL of incubation buffer (HBSS supplemented with 20 mM HEPES, pH 7.4) and incubated for 20 min at 37 °C. […] Cells were solubilized with 0.6 mL of 1N NaOH overnight and transferred into scintillation vials. ^3H and ^14C contents were measured after the addition of 2.5 mL of scintillator in a liquid scintillation counter.\n(§3) The cellular protein amount was determined in parallel for each cell line (vector- and transporter-transfected) from six wells in a different 24-well reference plate using the Bradford method. […]\n(§4) The inhibitory effect (I(%)) was calculated according to the formula: [drawing 5] […]"}, "mOat3": {"target": "T2, mOat3 (Mus musculus, UniProt O88909)", "T2 construct": "expressed in transfected cells; host or cells: HEK293", "T2 sequence (O88909 1-537)": "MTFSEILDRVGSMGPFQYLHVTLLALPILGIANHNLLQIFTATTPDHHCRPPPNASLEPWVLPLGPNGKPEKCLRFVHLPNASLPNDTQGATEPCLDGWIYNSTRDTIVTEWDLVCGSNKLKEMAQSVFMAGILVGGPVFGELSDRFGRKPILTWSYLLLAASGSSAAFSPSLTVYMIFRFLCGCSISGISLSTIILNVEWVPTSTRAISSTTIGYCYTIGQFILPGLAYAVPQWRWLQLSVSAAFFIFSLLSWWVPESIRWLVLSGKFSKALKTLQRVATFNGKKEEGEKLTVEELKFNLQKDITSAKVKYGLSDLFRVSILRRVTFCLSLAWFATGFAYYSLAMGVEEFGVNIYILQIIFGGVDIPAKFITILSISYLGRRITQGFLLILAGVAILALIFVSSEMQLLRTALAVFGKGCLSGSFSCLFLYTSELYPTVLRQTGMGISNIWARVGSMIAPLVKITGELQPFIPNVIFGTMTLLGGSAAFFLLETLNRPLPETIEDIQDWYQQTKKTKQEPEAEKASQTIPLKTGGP", "assay": "Two-point inhibition of mOat3-mediated ES uptake in transfected HEK293 cells", "settings": "ES 1 μM, 1 min", "procedure": "as §1, §2, §3, §4"}, "hMRP2": {"target": "T3, hMRP2 (Homo sapiens, UniProt Q92887)", "T3 construct": "expressed in transfected cells; host or cells: HEK293", "T3 sequence (Q92887 whole entry)": "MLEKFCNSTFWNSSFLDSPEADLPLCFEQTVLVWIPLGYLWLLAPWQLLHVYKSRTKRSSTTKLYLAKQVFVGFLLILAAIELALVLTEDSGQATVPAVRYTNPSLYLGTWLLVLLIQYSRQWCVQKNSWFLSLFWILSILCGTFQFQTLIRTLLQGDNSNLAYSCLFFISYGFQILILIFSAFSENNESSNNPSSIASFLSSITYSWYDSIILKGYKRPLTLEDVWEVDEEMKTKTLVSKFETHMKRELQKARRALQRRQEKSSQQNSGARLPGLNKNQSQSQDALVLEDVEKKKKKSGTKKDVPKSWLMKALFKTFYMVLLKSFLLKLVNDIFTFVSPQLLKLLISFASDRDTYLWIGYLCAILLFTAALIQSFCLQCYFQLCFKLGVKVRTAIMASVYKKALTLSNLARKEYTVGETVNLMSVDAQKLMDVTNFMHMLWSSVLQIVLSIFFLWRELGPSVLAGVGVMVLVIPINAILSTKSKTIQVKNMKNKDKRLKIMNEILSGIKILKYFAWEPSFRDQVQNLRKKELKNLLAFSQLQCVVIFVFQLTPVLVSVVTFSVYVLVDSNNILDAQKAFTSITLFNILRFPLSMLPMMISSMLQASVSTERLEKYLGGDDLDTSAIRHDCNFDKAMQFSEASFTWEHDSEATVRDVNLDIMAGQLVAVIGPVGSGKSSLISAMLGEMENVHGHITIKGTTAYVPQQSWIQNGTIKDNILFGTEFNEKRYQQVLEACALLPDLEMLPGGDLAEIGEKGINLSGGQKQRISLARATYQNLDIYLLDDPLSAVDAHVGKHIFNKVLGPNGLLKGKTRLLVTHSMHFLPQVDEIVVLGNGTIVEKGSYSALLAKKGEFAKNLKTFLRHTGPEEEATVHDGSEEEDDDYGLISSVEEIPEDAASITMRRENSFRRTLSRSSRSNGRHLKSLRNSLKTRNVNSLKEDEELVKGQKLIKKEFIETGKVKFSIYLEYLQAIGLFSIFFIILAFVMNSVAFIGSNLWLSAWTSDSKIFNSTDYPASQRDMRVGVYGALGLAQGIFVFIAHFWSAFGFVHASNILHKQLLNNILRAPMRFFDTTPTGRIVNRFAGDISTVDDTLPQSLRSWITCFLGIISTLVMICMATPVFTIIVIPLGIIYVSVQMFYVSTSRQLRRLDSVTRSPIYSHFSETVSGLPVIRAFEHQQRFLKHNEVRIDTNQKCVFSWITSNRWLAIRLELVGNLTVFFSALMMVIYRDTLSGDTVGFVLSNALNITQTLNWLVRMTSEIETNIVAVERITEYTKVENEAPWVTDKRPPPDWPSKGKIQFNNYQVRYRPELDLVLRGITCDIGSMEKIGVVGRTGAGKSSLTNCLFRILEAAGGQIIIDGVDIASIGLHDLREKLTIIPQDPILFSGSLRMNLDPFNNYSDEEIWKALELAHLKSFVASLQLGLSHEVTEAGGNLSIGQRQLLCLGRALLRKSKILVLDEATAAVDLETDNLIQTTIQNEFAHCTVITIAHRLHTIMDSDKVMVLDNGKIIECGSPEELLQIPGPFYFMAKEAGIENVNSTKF", "assay": "Two-point inhibition of hMRP2-mediated efflux of CDCF in transfected HEK293 cells", "settings": "1 and 10 μM; CDCF-DA 5 μM, efflux 10 min", "procedure": "as §1, with “mg/mL). Each well was coated with 0.5 mL of poly-D-lysine solution and incubated for at least 15 min.” for “mg/mL).”\nAfter preloading, the incubation buffer was removed, cells were washed twice with cold HBSS incubation buffer, and for the efflux, 0.2 mL of incubation buffer was added to each well containing the nonlabeled CHD and CDCHD or reference inhibitor (Table S1) and incubated at 37 °C for designated time intervals. […] Samples were diluted with incubation buffer, and fluorescence was measured in a 96-well plate (Sarstedt, flat bottom) at an extinction of 490 nm and emission of 535 nm. […]\nThe inhibitory effect I (%) and the efflux ratio was calculated in the same way described for the uptake assays."}},
  "data": [
    {"compound": "Cc1ccc2c(C)c3c(c(O)c2c1O)C(=O)[C@@]1(O)C(=O)C(C(N)=O)=C(O)[C@@H](N)[C@H]1C3", "note": "[CDCHD, amidochelocardin]", "values": [
      {"measurement": "inhibition of hOAT3 (in words)", "setting": "hOAT3; 1 and 10 μM", "value": "only marginally"},
      {"measurement": "inhibitory effect on mOat3 (in words)", "setting": "mOat3; 1 and 10 μM", "value": "no inhibitory effect"},
      {"measurement": "inhibitory effect on hMRP2 (in words)", "setting": "hMRP2", "value": "slight inhibitory effect"}
    ]},
    {"compound": "CC(=O)C1=C(O)[C@@H](N)[C@H]2Cc3c(c(O)c4c(O)c(C)ccc4c3C)C(=O)[C@@]2(O)C1=O", "note": "[CHD, chelocardin]", "values": [
      {"measurement": "inhibition at 10 µM", "setting": "hOAT3; HEK293, at 10 μM, read-out: inhibitory effect on hOAT3", "value": "~75", "unit": "%"},
      {"measurement": "inhibition at 10 µM", "setting": "mOat3; HEK293, at 10 μM, read-out: inhibitory effect on mOat3", "value": "> 50", "unit": "%"},
      {"measurement": "inhibitory effect on hMRP2 (in words)", "setting": "hMRP2", "value": "slight inhibitory effect"}
    ]}
  ]
}
